Here are results for one compound from PMC9720979, “Activation of Piezo1 downregulates renin in juxtaglomerular cells and contributes to blood pressure homeostasis” (Cell & Bioscience, 2022).

For this experiment, the target named is T1, Piezo1 (Mus musculus, UniProt E2JF22).
T1 construct: endogenous full-length channel in mouse juxtaglomerular cell line As4.1 (ATCC CRL2193); homotrimer
The experiment in a line: Fluo-4 calcium imaging in As4.[…] cells, Hill fit. Type of experiment: cell-based. As to conditions: agonist; native As4.1 cells, HBSS with extracellular Ca2+; no added modulator.

T1 sequence (E2JF22 whole entry): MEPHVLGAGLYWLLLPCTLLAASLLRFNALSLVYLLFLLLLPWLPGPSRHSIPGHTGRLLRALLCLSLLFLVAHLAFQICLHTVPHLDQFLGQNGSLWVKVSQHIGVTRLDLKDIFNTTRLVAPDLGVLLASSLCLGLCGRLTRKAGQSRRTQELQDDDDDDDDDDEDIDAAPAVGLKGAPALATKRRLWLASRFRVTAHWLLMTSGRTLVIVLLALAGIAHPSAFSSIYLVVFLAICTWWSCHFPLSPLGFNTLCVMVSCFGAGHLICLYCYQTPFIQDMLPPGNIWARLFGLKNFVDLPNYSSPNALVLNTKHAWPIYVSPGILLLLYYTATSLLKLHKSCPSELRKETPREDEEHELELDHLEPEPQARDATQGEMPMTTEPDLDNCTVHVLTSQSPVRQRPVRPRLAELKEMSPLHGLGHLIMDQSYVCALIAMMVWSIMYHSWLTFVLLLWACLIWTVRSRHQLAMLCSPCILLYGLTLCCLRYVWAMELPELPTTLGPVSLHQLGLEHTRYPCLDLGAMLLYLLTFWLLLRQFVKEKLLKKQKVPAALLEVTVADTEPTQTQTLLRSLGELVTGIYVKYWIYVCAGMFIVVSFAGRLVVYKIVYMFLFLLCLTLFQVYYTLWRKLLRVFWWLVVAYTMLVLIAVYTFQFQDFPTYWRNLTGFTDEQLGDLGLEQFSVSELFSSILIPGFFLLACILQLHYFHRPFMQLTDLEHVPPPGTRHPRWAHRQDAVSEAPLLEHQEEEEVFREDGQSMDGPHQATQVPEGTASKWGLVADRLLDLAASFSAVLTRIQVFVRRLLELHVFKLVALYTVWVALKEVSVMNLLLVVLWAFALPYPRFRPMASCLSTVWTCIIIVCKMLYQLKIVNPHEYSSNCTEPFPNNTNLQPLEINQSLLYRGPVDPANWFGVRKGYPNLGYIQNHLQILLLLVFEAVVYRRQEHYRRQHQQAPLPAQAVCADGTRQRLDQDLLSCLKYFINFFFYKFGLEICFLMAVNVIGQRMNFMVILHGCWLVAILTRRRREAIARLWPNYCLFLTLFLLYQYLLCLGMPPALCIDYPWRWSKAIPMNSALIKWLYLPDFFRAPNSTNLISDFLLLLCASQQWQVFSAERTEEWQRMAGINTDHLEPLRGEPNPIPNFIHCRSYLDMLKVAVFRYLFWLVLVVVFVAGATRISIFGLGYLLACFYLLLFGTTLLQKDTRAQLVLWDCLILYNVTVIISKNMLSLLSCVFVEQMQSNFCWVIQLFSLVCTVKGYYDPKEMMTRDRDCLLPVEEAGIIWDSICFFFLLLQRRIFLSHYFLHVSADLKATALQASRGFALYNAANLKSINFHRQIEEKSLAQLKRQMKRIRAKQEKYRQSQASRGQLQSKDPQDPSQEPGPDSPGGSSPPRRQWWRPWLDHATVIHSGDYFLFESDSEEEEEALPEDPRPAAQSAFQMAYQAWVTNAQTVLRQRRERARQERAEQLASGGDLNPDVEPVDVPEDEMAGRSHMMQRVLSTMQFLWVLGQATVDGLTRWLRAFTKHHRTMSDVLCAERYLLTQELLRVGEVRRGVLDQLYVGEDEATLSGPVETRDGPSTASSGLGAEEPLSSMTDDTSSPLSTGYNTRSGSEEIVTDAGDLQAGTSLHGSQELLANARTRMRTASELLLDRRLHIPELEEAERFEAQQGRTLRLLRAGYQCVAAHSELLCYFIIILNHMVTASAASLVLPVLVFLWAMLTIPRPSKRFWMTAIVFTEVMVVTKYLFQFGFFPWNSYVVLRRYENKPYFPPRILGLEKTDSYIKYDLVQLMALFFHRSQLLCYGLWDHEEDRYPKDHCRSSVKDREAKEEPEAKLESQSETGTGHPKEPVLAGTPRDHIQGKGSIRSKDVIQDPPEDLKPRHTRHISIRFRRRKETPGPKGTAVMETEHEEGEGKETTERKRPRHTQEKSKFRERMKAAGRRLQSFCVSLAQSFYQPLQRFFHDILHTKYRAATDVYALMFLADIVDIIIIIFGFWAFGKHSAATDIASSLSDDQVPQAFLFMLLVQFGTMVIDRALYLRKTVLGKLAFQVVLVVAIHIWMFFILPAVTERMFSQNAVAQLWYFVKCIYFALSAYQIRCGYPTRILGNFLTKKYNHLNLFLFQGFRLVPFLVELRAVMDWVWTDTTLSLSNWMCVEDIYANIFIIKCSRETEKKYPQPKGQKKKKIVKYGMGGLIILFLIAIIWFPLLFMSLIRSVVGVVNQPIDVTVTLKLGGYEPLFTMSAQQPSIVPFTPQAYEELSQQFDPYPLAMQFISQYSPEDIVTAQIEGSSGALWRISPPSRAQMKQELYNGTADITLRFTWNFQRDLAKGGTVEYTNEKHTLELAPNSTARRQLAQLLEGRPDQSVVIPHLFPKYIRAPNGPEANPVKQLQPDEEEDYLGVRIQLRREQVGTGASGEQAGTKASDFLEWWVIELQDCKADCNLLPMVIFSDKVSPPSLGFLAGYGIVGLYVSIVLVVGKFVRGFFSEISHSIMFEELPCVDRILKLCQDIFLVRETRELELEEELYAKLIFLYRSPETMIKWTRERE

As usually defined, the EC50 is the concentration giving half of the maximal effect. Consider `Clc1cccc(Cl)c1CSc1nnc(-c2cnccn2)s1` [Yoda1], for which the EC50 worked out at 7.68 µM.
